Assay results as given in patent US20090163490A1, “Pyrrolopyrimidine Derivatives Used As HSP90 Inhibitors” (VERNALIS (R&D) LTD., priority 2006, published 2009).
Read-outs that look alike come from different tables or passages of the source.

Tests used:
human full-length HSP90 = target: T1, human full-length HSP90 (Homo sapiens, UniProt P08238); assay: Fluorescence polarization (FP) binding assay; conditions: competitive displacement of fluorescein-labelled probe from human full-length HSP90, activity range
T1 construct: E. coli expressed human full-length HSP90 protein, purified >95%; made in house; host or cells: E. coli
T1 sequence (P08238 whole entry): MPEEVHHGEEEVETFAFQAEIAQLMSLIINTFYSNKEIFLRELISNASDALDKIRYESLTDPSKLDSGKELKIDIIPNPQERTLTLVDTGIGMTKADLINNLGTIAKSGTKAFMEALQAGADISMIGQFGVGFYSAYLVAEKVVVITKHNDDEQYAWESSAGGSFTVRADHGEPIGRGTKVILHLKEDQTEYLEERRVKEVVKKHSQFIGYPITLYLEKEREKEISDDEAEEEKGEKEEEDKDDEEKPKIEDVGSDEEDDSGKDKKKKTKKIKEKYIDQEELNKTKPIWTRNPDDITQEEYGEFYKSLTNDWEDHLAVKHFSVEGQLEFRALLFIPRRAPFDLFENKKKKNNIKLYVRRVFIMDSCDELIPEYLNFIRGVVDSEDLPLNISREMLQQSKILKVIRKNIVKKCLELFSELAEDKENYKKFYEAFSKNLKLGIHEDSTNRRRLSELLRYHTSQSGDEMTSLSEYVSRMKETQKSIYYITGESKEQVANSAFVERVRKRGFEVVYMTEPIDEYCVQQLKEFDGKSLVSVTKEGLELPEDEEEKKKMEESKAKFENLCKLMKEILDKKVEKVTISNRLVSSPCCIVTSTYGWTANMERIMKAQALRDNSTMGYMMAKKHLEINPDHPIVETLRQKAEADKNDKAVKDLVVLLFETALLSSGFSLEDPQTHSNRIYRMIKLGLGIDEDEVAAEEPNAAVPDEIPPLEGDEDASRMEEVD
Description: Fluorescence Polarization Assay
Fluorescence polarization {also known as fluorescence anisotropy} measures the rotation of a fluorescing species in solution, where the larger molecule the more polarized the fluorescence emission. When the fluorophore is excited with polarized light, the emitted light is also polarized. The molecular size is proportional to the polarization of the fluorescence emission.
The fluoroscein-labelled probe—
binds to HSP90 {full-length human, full-length yeast or N-terminal domain HSP90} and the anisotropy {rotation of the probe:protein complex} is measured.
Test compound is added to the assay plate, left to equilibrate and the anisotropy measured again. Any change in anisotropy is due to competitive binding of compound to HSP90, thereby releasing probe.
Stored at room temperature. • 3) BSA (bovine serum albumen) 10 mg/ml (New England Biolabs # B9001S) • 4) 20 mM probe in 100% DMSO stock concentration. Stored in the dark at RT. Working concentration is 200 nM diluted in AR water and stored at 4° C.
• 1) Add 100 μl×buffer to wells 1A and 12A(=FP BLNK) • 2) Prepare assay mix—all reagents are kept on ice with a lid on the bucket as the probe is light-sensitive.
• 3) Aliquot 100 μl assay mix to all other wells • 4) Seal plate and leave in dark at room temp for 20 minutes to equilibrate
This gives 2.5 mM {50×} stock cpd−assuming cpds 20 mM. • 4) Repeat for wells A2 to A10. Control in columns 11 and 12. • 5) Transfer 5 μl from row A to row B—not column 12. Mix well. • 6) Transfer 5 μl from row B to row C. […] Add 2 μl of 100 mM standard cpd to wells B12-H12 {is positive control} • 13) The Z′ factor is calculated from zero controls and positive wells.

BT474 cells = assay: Sulforhodamine B (SRB) growth inhibition assay; assay type: cell-based; conditions: Homo sapiens, BT-474, activity range
Protocol: A growth inhibition assay was also employed for the evaluation of test compounds:
Assessment of Cytotoxicity by Sulforhodamine B (SRB) Assay: Calculation of 50% Inhibitory Concentration (IC50).
• 1) Determine cell number by haemocytometer. • 2) Using an 8 channel multipipettor, add 160 μl of the cell suspension (3600 cells/well or 2×10^4 cells/ml) to each well of a 96-well microtitre plate. • 3) Incubate overnight at 37° C. in a CO2 incubator.
• 4) Stock solutions of drugs are prepared, and serial dilutions of each drug are performed in medium to give final concentrations in wells. • 5) Using a multipipettor, 40 μl of drug (at 5× final concentration) is added to quadruplicate wells. • 6) Control wells are at either side of the 96 well plates, where 40 μl of medium is added. • 7) Incubate plates in CO2 incubator for […].
• 8) Tip off medium into sink and immerse plate slowly into 10% ice cold trichloroacetic acid (TCA). Leave for about 30 mins on ice. • 9) Wash plates three times in tap water by immersing the plates into baths of tap water and tipping it off. • 10) Dry in incubator. • 11) Add 100 μl of 0.4% SRB in 1% acetic acid to each well (except the last row (right hand) of the 96 well plate, this is the 0% control, ie no drug, no stain. The first row will be the 100% control with no drug, but with stain). Leave for 15 mins. • 12) Wash off unbound SRB stain with four washes of 1% acetic acid. • 13) Dry plates in incubator. • 14) Solubilised SRB using […] of 10 mM Tris base and put plates on plate shaker for 5 mins. • 15) Determine absorbance at 540 nm using a plate reader. Calculate mean absorbance for quadruplicate wells and express as a percentage of value for control, untreated wells. • 16) Plot % absorbance values versus log drug concentration and determine the GI50., ie the concentration of test compound required to inhibit growth of the cells by 50%.
The compounds tested in the above assay were assigned to one of three activity ranges, namely A=<0.5 μM; B=0.5 μM to 10 μM; C=>10 μM, and the results for six of the compounds of the invention are reported in Table 2.

[1] = read-out: activity in the fluorescence polarization assay
[2] = read-out: ACTIVITY* (Activity in the FP binding assay)

| IC50 (human full-length HSP90; [1]) [nM] | GI50 (BT474 cells) [nM] | IC50 (human full-length HSP90; [2]) [nM] | Compound |
| --- | --- | --- | --- |
| < 500 | 500 to 10000 |  | CCN(CC)CCOc1nc(-c2cc(OC)c(Cl)cc2Cl)c2c(C#N)c[nH]c2n1 [Example 24, 4-(2,4-Dichloro-5-methoxy-phenyl)-2-(2-diethylamino-ethoxy)-7H-pyrrolo[2,3-d]pyrimidine-5-carbonitrile] |
| < 500 | 500 to 10000 |  | CCN(CC)CCSc1nc(-c2ccc(F)cc2C)c2c(C#N)c[nH]c2n1 [Example 19, 2-(2-Diethylamino-ethylsulfanyl)-4-(4-fluoro-2-methyl-phenyl)-7H-pyrrolo[2,3-d]pyrimidine-5-carbonitrile] |
| < 500 | < 500 |  | COc1cc(Cl)c(-c2nc(OCCN3CCC(F)(F)CC3)nc3[nH]cc(C#N)c23)cc1OC [Example 31, 4-(2-Chloro-4,5-dimethoxy-phenyl)-2-[2-(4,4-difluoro-piperidin-1-yl)-ethoxy]-7H-pyrrolo[2,3-d]pyrimidine-5-carbonitrile] |
| < 500 | < 500 |  | CCN(CC)CCOc1cc(-c2nc(SCC(=O)NC)nc3[nH]cc(C#N)c23)c(Cl)cc1Cl [Example 28, 2-{5-Cyano-4-[2,4-dichloro-5-(2-diethylamino-ethoxy)-phenyl]-7H-pyrrolo[2,3-d]pyrimidin-2-ylsulfanyl}-N-methyl-acetamide] |
|  | 500 to 10000 | 500 to 10000 | CC(C)Sc1nc(-c2cc(OCc3ccccc3)c(Cl)cc2Cl)c2c(C#N)c[nH]c2n1 [Example 51] |
|  | < 500 | < 500 | COc1cc(Cl)c(-c2nc(SC)nc3[nH]cc(C#N)c23)cc1OCCN1CC[C@@H](F)C1 [Example 72] |
